# Key:
# Format in all cases: cell-based, Clostridium difficile
# C. difficile ATCC 1801 = experiment: MIC and MBC, broth microdilution; details: Clostridioides difficile, ATCC1801, C. difficile ATCC 1801
# Description: (§1) Antibacterial activity of Diiodohydroxyquinoline against a wide panel of Clostridium difficile strains. […] MIC50 and MIC90 are the minimum concentration of each agent that inhibited growth of 50% and 90% of the tested isolates, respectively. The minimum bactericidal concentration (MBC) of these drugs was tested by plating 5 μL from wells with no growth onto BHIS agar plates. The MBC was categorized as the lowest concentration that reduced bacterial growth by 99.9% MIC50 and MIC90 are the minimum concentration of each agent that inhibited the growth of 50% and 90% of the tested isolates, respectively. The minimum bactericidal concentration (MBC) of these drugs was tested by plating 5 μL from wells with no growth onto BHIS agar plates. The MBC was categorized as the lowest concentration that reduced bacterial growth by 99.9% [29-31].
# C. difficile ATCC 43255 [1] = experiment: MIC and MBC, broth microdilution; details: Clostridioides difficile, ATCC43255, C. difficile ATCC 43255
# Description: as §1
# C. difficile I10 = experiment: MIC and MBC, broth microdilution; details: Clostridioides difficile, C. difficile I10
# Description: as §1
# C. difficile I6 = experiment: MIC and MBC, broth microdilution; details: Clostridioides difficile, C. difficile I6
# Description: as §1
# C. difficile NR-49285 = experiment: MIC and MBC, broth microdilution; details: Clostridioides difficile, NR49285, C. difficile NR-49285
# Description: as §1
# C. difficile NR-49288 = experiment: MIC and MBC, broth microdilution; details: Clostridioides difficile, NR49288, C. difficile NR-49288
# Description: as §1
# C. difficile P20 = experiment: MIC and MBC, broth microdilution; details: Clostridioides difficile, C. difficile P20
# Description: as §1
# C. difficile P6 = experiment: MIC and MBC, broth microdilution; details: Clostridioides difficile, C. difficile P6
# Description: as §1
# C. difficile ATCC 43255 [2] = experiment: Toxin A and B production inhibition, ELISA; details: 8 hours
# Description: (§2) To investigate DIHQs toxin production inhibitory activity, toxin A and toxin B levels were measured as described previously. […] An aliquot from each tube was diluted and plated on BHIS agar plates and incubated anaerobically at 37° C. for 24 hours to detect the bacterial count. The total concentration of C. difficile toxin A and B was measured in the supernatant of each tube using enzyme linked immunosorbent assay (ELISA) kit (tgc BIOMICS, Dunwoody, GA) following the manufacturer's instructions. The (OD450-OD620) values, corresponding to the toxin concentration, were measured for DIHQ and control drugs.
# [3] = tested on: C. difficile ATCC BAA-1870; experiment: Toxin A and B production inhibition, ELISA; details: 8 hours
# Description: as §2
# C. difficile NR-49277 = experiment: Toxin A and B production inhibition, ELISA; details: 8 hours
# Description: as §2
smiles,measurement,setting,value
"CCc1c(Cl)c(O)c(Cl)c(O)c1C(=O)O[C@H]1[C@H](O)[C@H](OC)[C@H](OC/C2=C\C=C\C[C@H](O)/C(C)=C/[C@H](CC)[C@@H](O[C@@H]3OC(C)(C)[C@@H](OC(=O)C(C)C)[C@H](O)[C@@H]3O)/C(C)=C/C(C)=C/C[C@@H]([C@@H](C)O)OC2=O)O[C@@H]1C [Fidaxomicin, fidaxomicin]",MBC,C. difficile ATCC 1801; read-out: MBC,0.125 µg/mL
same,MIC,C. difficile ATCC 1801; read-out: MIC,0.06 µg/mL
same,MBC,C. difficile ATCC 43255 [1]; read-out: MBC,0.015 µg/mL
same,MIC,C. difficile ATCC 43255 [1]; read-out: MIC,0.015 µg/mL
same,MBC,C. difficile I10; read-out: MBC,0.03 µg/mL
same,MIC,C. difficile I10; read-out: MIC,0.015 µg/mL
same,MBC,C. difficile I6; read-out: MBC,0.06 µg/mL
same,MIC,C. difficile I6; read-out: MIC,0.06 µg/mL
same,MBC,C. difficile NR-49285; read-out: MBC,0.03 µg/mL
same,MIC,C. difficile NR-49285; read-out: MIC,0.015 µg/mL
same,MBC,C. difficile NR-49288; read-out: MBC,0.015 µg/mL
same,MIC,C. difficile NR-49288; read-out: MIC,0.007 µg/mL
same,MBC,C. difficile P20; read-out: MBC,0.015 µg/mL
same,MIC,C. difficile P20; read-out: MIC,0.015 µg/mL
same,MBC,C. difficile P6; read-out: MBC,0.003 µg/mL
same,MIC,C. difficile P6; read-out: MIC,0.003 µg/mL
same,inhibition of total toxin production,"C. difficile ATCC 43255 [2]; C. difficile ATCC 43255, ¼×MIC",14.3%
same,inhibition of total toxin production,"C. difficile ATCC 43255 [2]; C. difficile ATCC 43255, ½×MIC",37%
same,inhibition of total toxin production,"[3]; C. difficile ATCC BAA-1870, ¼×MIC",31.9%
same,inhibition of total toxin production,"[3]; C. difficile ATCC BAA-1870, ½×MIC",46.2%
same,inhibition of total toxin production,"C. difficile NR-49277; C. difficile NR-49277, ¼×MIC",58.8%
same,inhibition of total toxin production,"C. difficile NR-49277; C. difficile NR-49277, ½×MIC",67.4%

# Source: patent publication US11806342B2, “Diiodohydroxyquinoline for the treatment of clostridium difficile infection” (Purdue Research Foundation, priority 2019, dated 2023)
